#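 Grown in 96-well plates, cells were treated for 48 hours with each compound at five concentrations. Insufficient inhibition: endpoint recorded as highest concentration tested. GI50: concentration for 50% inhibition of growth. At the TGI there is no net growth.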
# Columns and labels:
# Assay in all cases: NCI anticancer screen, dose series, 48 h
# T-47D breast = test system: T-47D breast
# RPMI-8226 leukemia = test system: RPMI-8226 leukemia
# RXF 393 renal = test system: RXF 393 renal
# NCI/ADR-RES ovarian = test system: NCI/ADR-RES ovarian
# SNB-75 CNS = test system: SNB-75 CNS
# HT29 colon = test system: HT29 colon
# SK-OV-3 ovarian = test system: SK-OV-3 ovarian
# HCT-116 colon = test system: HCT-116 colon
# BT-549 breast = test system: BT-549 breast
# SN12C renal = test system: SN12C renal
# SF-539 CNS = test system: SF-539 CNS
# MDA-MB-435 = test system: MDA-MB-435
# SK-MEL-5 melanoma = test system: SK-MEL-5 melanoma
# SNB-19 CNS = test system: SNB-19 CNS
# SF-295 CNS = test system: SF-295 CNS
# LOX IMVI melanoma = test system: LOX IMVI melanoma
# SF-268 CNS = test system: SF-268 CNS
# A549 NSCLC = test system: A549 NSCLC
# COLO 205 colon = test system: COLO 205 colon
# NCI-H522 lung = test system: NCI-H522 lung
# UACC-62 melanoma = test system: UACC-62 melanoma
# ACHN renal = test system: ACHN renal
# HCC-2998 colon = test system: HCC-2998 colon
# OVCAR-5 ovarian = test system: OVCAR-5 ovarian
# SK-MEL-2 melanoma = test system: SK-MEL-2 melanoma
# CCRF-CEM leukemia = test system: CCRF-CEM leukemia
# HCT-15 colon = test system: HCT-15 colon
# HOP-62 NSCLC = test system: HOP-62 NSCLC
# NCI-H226 lung = test system: NCI-H226 lung
# MCF7 breast = test system: MCF7 breast
# PC-3 prostate = test system: PC-3 prostate
# NCI-H23 lung = test system: NCI-H23 lung
# HS 578T breast = test system: HS 578T breast
# 786-0 renal = test system: 786-0 renal
# NCI-H460 lung = test system: NCI-H460 lung
# HL-60(TB) leukemia = test system: HL-60(TB) leukemia
# UACC-257 melanoma = test system: UACC-257 melanoma
# K-562 leukemia = test system: K-562 leukemia
# SK-MEL-28 melanoma = test system: SK-MEL-28 melanoma
# EKVX NSCLC = test system: EKVX NSCLC
# DU-145 prostate = test system: DU-145 prostate
# OVCAR-8 ovarian = test system: OVCAR-8 ovarian
# TK-10 renal = test system: TK-10 renal
# M14 melanoma = test system: M14 melanoma
# A498 renal = test system: A498 renal
# KM12 colon = test system: KM12 colon
# HOP-92 NSCLC = test system: HOP-92 NSCLC
# CAKI-1 renal = test system: CAKI-1 renal
# MALME-3M melanoma = test system: MALME-3M melanoma
# OVCAR-3 ovarian = test system: OVCAR-3 ovarian
# SW-620 colon = test system: SW-620 colon
# OVCAR-4 ovarian = test system: OVCAR-4 ovarian
# SR leukemia = test system: SR leukemia
# MDA-MB-231 breast = test system: MDA-MB-231 breast
# U251 CNS = test system: U251 CNS
# MOLT-4 leukemia = test system: MOLT-4 leukemia
# UO-31 renal = test system: UO-31 renal
structure (smiles),measurement,setting,value
O=C(N/N=C\c1c(O)ccc2ccccc12)C1CC1,GI50,T-47D breast,4.9 µM
same,TGI,T-47D breast,> 100 µM
same,GI50,RPMI-8226 leukemia,7.91 µM
same,TGI,RPMI-8226 leukemia,> 100 µM
same,GI50,RXF 393 renal,8.91 µM
same,TGI,RXF 393 renal,> 100 µM
same,GI50,NCI/ADR-RES ovarian,2.76 µM
same,TGI,NCI/ADR-RES ovarian,> 100 µM
same,GI50,SNB-75 CNS,6.68 µM
same,TGI,SNB-75 CNS,91.1 µM
same,GI50,HT29 colon,13 µM
same,TGI,HT29 colon,> 100 µM
same,GI50,SK-OV-3 ovarian,3.36 µM
same,TGI,SK-OV-3 ovarian,67.2 µM
same,GI50,HCT-116 colon,3.04 µM
same,TGI,HCT-116 colon,> 100 µM
same,GI50,BT-549 breast,5.78 µM
same,TGI,BT-549 breast,88.7 µM
same,GI50,SN12C renal,11.7 µM
same,TGI,SN12C renal,> 100 µM
same,GI50,SF-539 CNS,4.48 µM
same,TGI,SF-539 CNS,> 100 µM
same,GI50,MDA-MB-435,11.6 µM
same,TGI,MDA-MB-435,> 100 µM
same,GI50,SK-MEL-5 melanoma,3.81 µM
same,TGI,SK-MEL-5 melanoma,> 100 µM
same,GI50,SNB-19 CNS,12.9 µM
same,TGI,SNB-19 CNS,> 100 µM
same,GI50,SF-295 CNS,2.26 µM
same,TGI,SF-295 CNS,8.23 µM
same,GI50,LOX IMVI melanoma,1.79 µM
same,TGI,LOX IMVI melanoma,> 100 µM
same,GI50,SF-268 CNS,4.1 µM
same,TGI,SF-268 CNS,> 100 µM
same,GI50,A549 NSCLC,7.13 µM
same,TGI,A549 NSCLC,> 100 µM
same,GI50,COLO 205 colon,11.2 µM
same,TGI,COLO 205 colon,93.8 µM
same,GI50,NCI-H522 lung,5.75 µM
same,TGI,NCI-H522 lung,> 100 µM
same,GI50,UACC-62 melanoma,3.25 µM
same,TGI,UACC-62 melanoma,22.8 µM
same,GI50,ACHN renal,2.82 µM
same,TGI,ACHN renal,> 100 µM
same,GI50,HCC-2998 colon,9.8 µM
same,TGI,HCC-2998 colon,> 100 µM
same,GI50,OVCAR-5 ovarian,19.6 µM
same,TGI,OVCAR-5 ovarian,> 100 µM
same,GI50,SK-MEL-2 melanoma,18.9 µM
same,TGI,SK-MEL-2 melanoma,> 100 µM
same,GI50,CCRF-CEM leukemia,0.889 µM
same,TGI,CCRF-CEM leukemia,> 100 µM
same,GI50,HCT-15 colon,1.22 µM
same,TGI,HCT-15 colon,> 100 µM
same,GI50,HOP-62 NSCLC,4.34 µM
same,TGI,HOP-62 NSCLC,91.4 µM
same,GI50,NCI-H226 lung,13.1 µM
same,TGI,NCI-H226 lung,84.2 µM
same,GI50,MCF7 breast,3.41 µM
same,TGI,MCF7 breast,> 100 µM
same,GI50,PC-3 prostate,11.7 µM
same,TGI,PC-3 prostate,> 100 µM
same,GI50,NCI-H23 lung,5.94 µM
same,TGI,NCI-H23 lung,> 100 µM
same,GI50,HS 578T breast,17.2 µM
same,TGI,HS 578T breast,> 100 µM
same,GI50,786-0 renal,5.16 µM
same,TGI,786-0 renal,> 100 µM
same,GI50,NCI-H460 lung,3 µM
same,TGI,NCI-H460 lung,> 100 µM
same,GI50,HL-60(TB) leukemia,1.53 µM
same,TGI,HL-60(TB) leukemia,> 100 µM
same,GI50,UACC-257 melanoma,3.74 µM
same,TGI,UACC-257 melanoma,97.1 µM
same,GI50,K-562 leukemia,3.64 µM
same,TGI,K-562 leukemia,> 100 µM
same,GI50,SK-MEL-28 melanoma,17.8 µM
same,TGI,SK-MEL-28 melanoma,> 100 µM
same,GI50,EKVX NSCLC,2.91 µM
same,TGI,EKVX NSCLC,> 100 µM
same,GI50,DU-145 prostate,13.4 µM
same,TGI,DU-145 prostate,> 100 µM
same,GI50,OVCAR-8 ovarian,3.12 µM
same,TGI,OVCAR-8 ovarian,> 100 µM
same,GI50,TK-10 renal,30.4 µM
same,TGI,TK-10 renal,> 100 µM
same,GI50,M14 melanoma,3.76 µM
same,TGI,M14 melanoma,56 µM
same,GI50,A498 renal,16.8 µM
same,TGI,A498 renal,52 µM
same,GI50,KM12 colon,6.12 µM
same,TGI,KM12 colon,> 100 µM
same,GI50,HOP-92 NSCLC,16.7 µM
same,TGI,HOP-92 NSCLC,> 100 µM
same,GI50,CAKI-1 renal,1.6 µM
same,TGI,CAKI-1 renal,8.22 µM
same,GI50,MALME-3M melanoma,7.76 µM
same,TGI,MALME-3M melanoma,54 µM
same,GI50,OVCAR-3 ovarian,2.2 µM
same,TGI,OVCAR-3 ovarian,46 µM
same,GI50,SW-620 colon,6.55 µM
same,TGI,SW-620 colon,> 100 µM
same,GI50,OVCAR-4 ovarian,2.6 µM
same,TGI,OVCAR-4 ovarian,> 100 µM
same,GI50,SR leukemia,2.55 µM
same,TGI,SR leukemia,> 100 µM
same,GI50,MDA-MB-231 breast,7.5 µM
same,TGI,MDA-MB-231 breast,> 100 µM
same,GI50,U251 CNS,2.05 µM
same,TGI,U251 CNS,> 100 µM
same,GI50,MOLT-4 leukemia,3.17 µM
same,TGI,MOLT-4 leukemia,> 100 µM
same,GI50,UO-31 renal,0.863 µM
same,TGI,UO-31 renal,14.9 µM
